Results taken from US4720495A, “Benzo[ij]quinolizine-2-carboxylic acids useful for treating bacterial infection” (priority 1985, dated 1988).
Values after ≈ are worked out from the molar mass of the structure shown.

Experiments:
[1] = test system: Escherichia coli NIHJ JC-2; assay: minimal inhibitory concentration, in vitro antibacterial activity; assay type: cell-based; conditions: NIHJJC2, 37° C., 20 hours
Protocol: (§1) The in vitro antibacterial activities of typical examples of the present compounds [I] were evaluated in terms of the minimal inhibitory concentration defined as the lowest concentration of the compound preventing the bacterial growth. The Gram-positive bacteria used as test microorganisms included Bacillus subtilis, Staphylococcus aureus and Streptococcus faecalis, and the Gram-negative bacteria used as test microorganisms included Escherichia coli, Enterobacter cloacae, Klebsiella pneumoniae, Proteus vulgaris, Pseudomonas aeruginosa, Serratia marcescens and Salmonella enteritidis. The minimal inhibitory concentration (cultured at 37° C. for 20 hours) was determined according to the standard method prescribed by the Japan Society of Chemotherapy (CHEMOTHERAPY, Vol. 29, No. 1, p. 76, 1981). The following compounds were used as typical examples of the present compounds [I]. At the end of the chemical name of each compound, its tentative designation is given in Parentheses.
(§2) For purposes of comparison, the in vitro antibacterial activities of ofloxacin, OPC-7241 and compound α were evaluated according to the same method as described above and the test results thus obtained are also shown in Table 1.

[2] = test system: Bacillus subtilis ATCC 6633; assay: as above; assay type: cell-based; conditions: ATCC6633, 37° C., 20 hours
Protocol: as §1, §2

Escherichia coli CI-304 = assay: as above; assay type: cell-based; conditions: CI304, 37° C., 20 hours
Protocol: as §1, §2

[3] = test system: Proteus vulgaris ATCC 13315; assay: as above; assay type: cell-based; conditions: ATCC13315, 37° C., 20 hours
Protocol: as §1, §2

[4] = test system: Pseudomonas aeruginosa NCTC 10490; assay: as above; assay type: cell-based; conditions: NCTC10490, 37° C., 20 hours
Protocol: as §1, §2

Enterobacter cloacae 963 = assay: as above; assay type: cell-based; conditions: 37° C., 20 hours
Protocol: as §1, §2

[5] = test system: Salmonella enteritidis G14; assay: as above; assay type: cell-based; conditions: Salmonella enterica, 37° C., 20 hours
Protocol: as §1, §2

[6] = test system: Serratia marcescens IAM 1184; assay: as above; assay type: cell-based; conditions: IAM1184, 37° C., 20 hours
Protocol: as §1, §2

[7] = test system: Streptococcus faecalis AHU 1085; assay: as above; assay type: cell-based; conditions: Enterococcus faecalis, AHU1085, 37° C., 20 hours
Protocol: as §1, §2

[8] = test system: Klebsiella pneumoniae PCI 602; assay: as above; assay type: cell-based; conditions: PCI602, 37° C., 20 hours
Protocol: as §1, §2

[9] = test system: Staphylococcus aureus FDA 209P JC-1; assay: as above; assay type: cell-based; conditions: FDA209P, 37° C., 20 hours
Protocol: as §1, §2

[10] = enteral absorbability, serum concentration after oral administration to mice; assay type: in vivo; conditions: mouse, 50 mg/kg orally, fasted male ICR mice; for concentration at 0.5 h: 30 min.
Protocol: Using male ICR mice fasted overnight (weighing 20±1 g), the enteral absorbability of some typical examples of the present compounds [I] was tested. This test was carried out by administering 50 mg/kg of each test compound orally to mice and determining its serum concentration 30 minutes, 1 hour, 2 hours and 4 hours after administration. Five mice were used for each test point. At each test point, whole blood was collected from the mice by cardiac puncture and used to prepare serum samples. Concentrations of the test compounds in serum samples were determined by the paper disc method using Escherichia coli CI-304 as the test microorganism.
For purposes of comparison, the enteral absorbability of ofloxacin and OPC-7241 was tested in the same manner as described above and the results thus obtained are also shown in Table 2.

| SMILES | MIC [1] [µg/mL] | MIC [2] [µg/mL] | MIC (Escherichia coli CI-304) [µg/mL] | MIC [3] [µg/mL] | MIC [4] [µg/mL] | MIC (Enterobacter cloacae 963) [µg/mL] | MIC [5] [µg/mL] | MIC [6] [µg/mL] | MIC [7] [µg/mL] | MIC [8] [µg/mL] | MIC [9] [µg/mL] | concentration at 0.5 h [10] [ng/mL] | concentration at 1 h [10] [ng/mL] | concentration at 2 h [10] [ng/mL] | concentration at 4 h [10] [ng/mL] |
| --- | --- | --- | --- | --- | --- | --- | --- | --- | --- | --- | --- | --- | --- | --- | --- |
| CC1CC(=O)c2c(N3CCNCC3)c(F)cc3c(=O)c(C(=O)O)cn1c23 (centres unmarked) [Compound 1, 9-Fluoro-5-methyl-8-(1-piperazinyl)-6,7-dihydro-1,7-dioxo-1H,5H-benzo[ij]quinolizine-2-carboxylic acid] | 0.39 (≈ 1.09 µM) | 0.39 (≈ 1.09 µM) | 0.1 (≈ 0.278 µM) | 0.2 (≈ 0.557 µM) | 1.56 (≈ 4.34 µM) | 0.78 (≈ 2.17 µM) | 0.39 (≈ 1.09 µM) | 3.13 (≈ 8.71 µM) | 1.56 (≈ 4.34 µM) | 0.1 (≈ 0.278 µM) | 0.2 (≈ 0.557 µM) | – | – | – | – |
| CC1CC(=O)c2c(N3CCNCC3)c(Cl)cc3c(=O)c(C(=O)O)cn1c23 (centres unmarked) [Compound 2, 9-Chloro-5-methyl-8-(1-piperazinyl)-6,7-dihydro-1,7-dioxo-1H,5H-benzo[ij]quinolizine-2-carboxylic acid] | 0.39 (≈ 1.04 µM) | 0.39 (≈ 1.04 µM) | 0.2 (≈ 0.532 µM) | 0.1 (≈ 0.266 µM) | 0.78 (≈ 2.08 µM) | 0.78 (≈ 2.08 µM) | – | – | – | 0.1 (≈ 0.266 µM) | 0.39 (≈ 1.04 µM) | – | – | – | – |
| CCC1CC(=O)c2c(N3CCN(C)CC3)c(F)cc3c(=O)c(C(=O)O)cn1c23 (centres unmarked) [Compound 6, 9-Fluoro-5-ethyl-8-(4-methyl-1-piperazinyl) -6,7-dihydro-1,7-dioxo-1H, 5H-benzo[ij]quinolizine-2-carboxylic acid] | 0.78 (≈ 2.01 µM) | 0.39 (≈ 1.01 µM) | 0.39 (≈ 1.01 µM) | – | – | 0.78 (≈ 2.01 µM) | – | – | – | 0.2 (≈ 0.516 µM) | – | – | – | – | – |
| CC1CC(=O)c2c(N3CCN(C)CC3)c(Cl)cc3c(=O)c(C(=O)O)cn1c23 (centres unmarked) [Compound 7, 9-Chloro-5-methyl-8-(4-methyl-1-piperazinyl)-6,7-dihydro-1,7-dioxo-1H, 5H-benzo[ij]quinolizine-2-carboxylic acid] | 0.1 (≈ 0.257 µM) | 0.1 (≈ 0.257 µM) | 0.1 (≈ 0.257 µM) | 0.1 (≈ 0.257 µM) | 0.78 (≈ 2 µM) | 0.2 (≈ 0.513 µM) | 0.78 (≈ 2 µM) | 3.13 (≈ 8.03 µM) | 1.56 (≈ 4 µM) | 0.1 (≈ 0.257 µM) | 0.39 (≈ 1 µM) | – | – | – | – |
| CCCN1CCN(c2c(F)cc3c(=O)c(C(=O)O)cn4c3c2C(=O)CC4C)CC1 (centres unmarked) [Compound 8, 9-Fluoro-5-methyl-8-(4-n-propyl-1-piperazinyl)-6,7-dihydro-1,7-dioxo-1H, 5H-benzo[ij]quinolizine-2-carboxylic acid] | 0.39 (≈ 0.972 µM) | 0.39 (≈ 0.972 µM) | 0.2 (≈ 0.498 µM) | – | 1.56 (≈ 3.89 µM) | 0.78 (≈ 1.94 µM) | – | – | 3.13 (≈ 7.8 µM) | 0.1 (≈ 0.249 µM) | 0.78 (≈ 1.94 µM) | – | – | – | – |
| CC1CC(=O)c2c(N3CCN(CCO)CC3)c(F)cc3c(=O)c(C(=O)O)cn1c23 (centres unmarked) [Compound 12, 9-Fluoro-5-methyl-8-[4-(2-hydroxyethyl) -1-piperazinyl]-6,7-dihydro-1,7-dioxo-1H, 5H-benzo[ij]quinolizine-2-carboxylic acid] | – | – | 0.39 (≈ 0.967 µM) | – | – | – | – | – | – | 0.1 (≈ 0.248 µM) | – | – | – | – | – |
| CC1CC(=O)c2c(N3CCNC(C)(C)C3)c(F)cc3c(=O)c(C(=O)O)cn1c23 (centres unmarked) [Compound 15, 9-Fluoro-5-methyl-8-(3,3-dimethyl-1-piperazinyl) -6,7-dihydro-1,7-dioxo-1H, 5H-benzo[ij]quinolizine-2-carboxylic acid] | 0.39 (≈ 1.01 µM) | 0.39 (≈ 1.01 µM) | 0.1 (≈ 0.258 µM) | – | 3.13 (≈ 8.08 µM) | 0.39 (≈ 1.01 µM) | 0.78 (≈ 2.01 µM) | – | 3.13 (≈ 8.08 µM) | 0.1 (≈ 0.258 µM) | 0.39 (≈ 1.01 µM) | 15000 | 11700 | 6700 | 4300 |
| CC1CN(c2c(Cl)cc3c(=O)c(C(=O)O)cn4c3c2C(=O)CC4C)CC(C)N1C (centres unmarked) [Compound 18, 9-Chloro-5-methyl-8-(3,4,5-trimethyl-1-piperazinyl) -6,7-dihydro-1,7-dioxo-1H, 5H-benzo[ij]quinolizine-2-carboxylic acid] | 0.78 (≈ 1.87 µM) | – | 0.2 (≈ 0.479 µM) | – | – | 0.78 (≈ 1.87 µM) | – | – | – | 0.1 (≈ 0.239 µM) | – | – | – | – | – |
| CC1C=Cc2c(N3CCN(C)CC3)c(F)cc3c(=O)c(C(=O)O)cn1c23 (centres unmarked) [Compound 19, 9-Fluoro-5-methyl-8-(4-methyl-1-piperazinyl) -1-oxo-1H, 5H-benzo[ij]quinolizine-2-carboxylic acid] | 0.39 (≈ 1.09 µM) | 0.1 (≈ 0.28 µM) | 0.2 (≈ 0.56 µM) | 0.1 (≈ 0.28 µM) | 0.78 (≈ 2.18 µM) | 0.78 (≈ 2.18 µM) | 0.78 (≈ 2.18 µM) | 1.56 (≈ 4.37 µM) | 1.56 (≈ 4.37 µM) | 0.1 (≈ 0.28 µM) | 0.39 (≈ 1.09 µM) | – | – | – | – |
| CC1C=Cc2c(N3CCNCC3)c(F)cc3c(=O)c(C(=O)O)cn1c23 (centres unmarked) [Compound 20, 9-Fluoro-5-methyl-8-(1-piperazinyl) -1-oxo-1H, 5H-benzo[ij]quinolizine-2-carboxylic acid] | 0.39 (≈ 1.14 µM) | – | 0.2 (≈ 0.582 µM) | 0.2 (≈ 0.582 µM) | 3.13 (≈ 9.12 µM) | 0.78 (≈ 2.27 µM) | 0.78 (≈ 2.27 µM) | 3.13 (≈ 9.12 µM) | – | 0.2 (≈ 0.582 µM) | 0.78 (≈ 2.27 µM) | – | – | – | – |
| CC1C=Cc2c(N3CCNCC3)c(Cl)cc3c(=O)c(C(=O)O)cn1c23 (centres unmarked) [Compound 22, 9-Chloro-5-methyl-8-(1-piperazinyl) -1-oxo-1H, 5H-benzo[ij]quinolizine-2-carboxylic acid] | 0.2 (≈ 0.556 µM) | 0.1 (≈ 0.278 µM) | 0.1 (≈ 0.278 µM) | 0.1 (≈ 0.278 µM) | 0.78 (≈ 2.17 µM) | 0.2 (≈ 0.556 µM) | 0.78 (≈ 2.17 µM) | 0.78 (≈ 2.17 µM) | 0.78 (≈ 2.17 µM) | 0.1 (≈ 0.278 µM) | 0.2 (≈ 0.556 µM) | – | – | – | – |
| CC1CN(c2c(F)cc3c(=O)c(C(=O)O)cn4c3c2C=CC4C)CCN1C (centres unmarked) [Compound 25, 9-Fluoro-5-methyl-8-(3,4-dimethyl-1-piperazinyl) -1-oxo-1H, 5H-benzo[ij]quinolizine-2-carboxylic acid] | 0.39 (≈ 1.05 µM) | 0.2 (≈ 0.538 µM) | 0.2 (≈ 0.538 µM) | 0.1 (≈ 0.269 µM) | 1.56 (≈ 4.2 µM) | 0.2 (≈ 0.538 µM) | 1.56 (≈ 4.2 µM) | 1.56 (≈ 4.2 µM) | – | 0.1 (≈ 0.269 µM) | 0.2 (≈ 0.538 µM) | 15500 | 14900 | 9300 | 5400 |
| CC1C=Cc2c(N3CCNC(C)(C)C3)c(F)cc3c(=O)c(C(=O)O)cn1c23 (centres unmarked) [Compound 26, 9-Fluoro-5-methyl-8-(3,3-dimethyl-1-piperazinyl) -1-oxo-1H, 5H-benzo[ij]quinolizine-2-carboxylic acid] | 0.39 (≈ 1.05 µM) | – | 0.2 (≈ 0.538 µM) | 0.1 (≈ 0.269 µM) | 1.56 (≈ 4.2 µM) | 0.39 (≈ 1.05 µM) | 1.56 (≈ 4.2 µM) | – | – | 0.2 (≈ 0.538 µM) | – | – | – | – | – |
| CC1CN(c2c(F)cc3c(=O)c(C(=O)O)cn4c3c2C=CC4C)CC(C)N1C (centres unmarked) [Compound 27, 9-Fluoro-5-methyl-8-(3,4,5-trimethyl-1-piperazinyl) -1-oxo-1H, 5H-benzo[ij]quinolizine-2-carboxylic acid] | – | – | 0.2 (≈ 0.519 µM) | 0.1 (≈ 0.259 µM) | – | 0.39 (≈ 1.01 µM) | 0.78 (≈ 2.02 µM) | 1.56 (≈ 4.05 µM) | – | 0.2 (≈ 0.519 µM) | 0.78 (≈ 2.02 µM) | – | – | – | – |
| CCC1C=Cc2c(N3CCNC(C)C3)c(F)cc3c(=O)c(C(=O)O)cn1c23 (centres unmarked) [Compound 32, 9-Fluoro-5-ethyl-8-(3-methyl-1-piperazinyl) -1-oxo-1H, 5H-benzo[ij]quinolizine-2-carboxylic acid] | 0.39 (≈ 1.05 µM) | – | 0.2 (≈ 0.538 µM) | – | – | 0.78 (≈ 2.1 µM) | – | – | – | 0.2 (≈ 0.538 µM) | – | – | – | – | – |
